Earlier results in patent US4307083A, “LRF Antagonists” (The Salk Institute for Biological Studies, priority 1980, dated 1981).
Non-standard residues stand in square brackets, D forms with d. pGlu = O=C1CC[C@@H](C(=O)O)N1

Test system: release of gonadotropins
Conditions: versus des-His2 peptide with Gly instead of D-Ala at position 6

In the case of [pGlu]WSY[dA]LRPG-NH2, the “Potency as inhibitor of gonadotropin release relative to the same peptide with Gly in the 6-position” value is listed as 3 times.
